Measured values: paper PMC13088243, “Quantifying Protein Homodimer Affinities and the Effect of Molecular Glues and Interface Residues Using Native Mass Spectrometry” (Journal of the American Chemical Society, 2026)
Where “and” joins values, the source holds several entries; their conditions need not be identical. Equal entries are not always repeated. Where two headings read alike, the source gives them in different places.

T1: Tpx WT (Trypanosoma brucei brucei, UniProt O77404)
T1 sequence (O77404 1-144): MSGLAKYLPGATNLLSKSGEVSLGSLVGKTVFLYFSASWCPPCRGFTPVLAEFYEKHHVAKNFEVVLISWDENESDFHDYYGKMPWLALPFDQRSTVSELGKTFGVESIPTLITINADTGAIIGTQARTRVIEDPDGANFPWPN

B1: Tryparedoxin (protein)
chain: T1 sequence (O77404 1-144)
modifications: ortho-CFT covalently bound to C40
B2: Tryparedoxin (protein)
chain: T1 sequence (O77404 1-144)
modifications: CPT covalently bound to C40
B3: Tryparedoxin (protein)
chain: T1 sequence (O77404 1-144)
modifications: CtFT covalently bound to C40
B4: Tryparedoxin (protein)
chain: T1 sequence (O77404 1-144)
modifications: para-CFT covalently bound to C40
B5: Tryparedoxin (protein)
chain: T1 sequence (O77404 1-144)
modifications: meta-CFT covalently bound to C40
B6: Tryparedoxin (protein)
chain: T1 sequence (O77404 1-144)

Assays:
[1] = biological target: T1, Tpx WT; set-up: method as in Schwegler et al., bioRxiv 2025; conditions: Tpx WT with molecular glue; previous dilution ITC; ref Schwegler et al., bioRxiv 2025; read-out: K D,ITC of Tpx homodimer; cited from earlier work
[2] = biological target: T1, Tpx WT; assay: biochemical; type: binding; conditions: for rD,LILBID @ 1100 µm / rD,solution: Tpx WT with or without molecular glue; for rD,LILBID @ 1100 µm: from linear fits of dissociation plots; for rD,solution: from rD,LILBID with calibration factor f1100
[3] = biological target: Tpx W39A (Trypanosoma brucei brucei, UniProt O77404, W39A); assay: biochemical; type: binding
Tpx W39A, sequence (O77404 whole entry W39A): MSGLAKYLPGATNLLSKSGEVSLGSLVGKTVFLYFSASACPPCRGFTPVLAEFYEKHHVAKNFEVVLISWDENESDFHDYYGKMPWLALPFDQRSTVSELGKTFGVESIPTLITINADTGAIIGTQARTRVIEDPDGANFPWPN

[4] = biological target: T2, Tpx K102E (Trypanosoma brucei brucei, UniProt O77404, K102E); set-up: method as in Schwegler et al., bioRxiv 2025; conditions: Tpx K102E with molecular glue; previous dilution ITC; ref Schwegler et al., bioRxiv 2025; read-out: K D,ITC of Tpx homodimer; cited from earlier work
T2 sequence (O77404 whole entry K102E): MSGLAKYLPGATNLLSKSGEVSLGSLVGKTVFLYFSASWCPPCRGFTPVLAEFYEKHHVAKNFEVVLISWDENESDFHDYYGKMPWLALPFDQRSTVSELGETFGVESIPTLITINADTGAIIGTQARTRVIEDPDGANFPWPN

[5] = biological target: Tpx K102A (Trypanosoma brucei brucei, UniProt O77404, K102A); assay: biochemical; type: binding
Tpx K102A, sequence (O77404 whole entry K102A): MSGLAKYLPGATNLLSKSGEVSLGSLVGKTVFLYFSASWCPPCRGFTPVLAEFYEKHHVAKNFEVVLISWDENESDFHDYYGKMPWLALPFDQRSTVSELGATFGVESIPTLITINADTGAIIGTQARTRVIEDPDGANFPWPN

[6] = biological target: T2, Tpx K102E; assay: biochemical; type: binding
[7] = biological target: BSA (Bos taurus) (UniProt P02769); conditions: cited from earlier work
[8] = biological target: B6; assay: qLILBID-MS
[9] = biological target: the molecule itself; assay: qLILBID-MS

Molecule	Kd [1]	Kd [2]	rD,LILBID @ 1100 µm [2]	rD,solution [2]	Kd [8]	further results
O=c1[nH]c(CCl)nc2scc(-c3ccccc3)c12 [CPT]	6 ± 2.2 µM	16 ± 9 µM	0.871 ± 0.033	0.568 ± 0.088		
O=c1[nH]c(CCl)nc2scc(-c3ccc(F)cc3)c12 [para-CFT, 2-(chloromethyl)-5-(4-fluorophenyl)thieno[2,3-d]pyrimidin-4(3H)-one]	5.3 ± 1.9 µM	5 ± 4 µM	0.798 ± 0.048	0.398 ± 0.099		Kd [3]: 300 ± 110 µM; rD,LILBID @ 1100 µm ([3]; Tpx W39A with or without para-CFT): 0.980 ± 0.006; rD,solution ([3]; Tpx W39A with or without para-CFT, from rD,LILBID with f1100): 0.921 ± 0.023; Kd [4]: 83 ± 32 µM; Kd ([5]; K D,LILBID of Tpx homodimer, Tpx K102A with para-CFT or none, ew 1100 μm, triplicate): 37 µM and 36 µM; rD,LILBID @ 1100 µm ([5]; Tpx K102A with or without para-CFT): 0.914 ± 0.027; rD,solution ([5]; Tpx K102A with or without para-CFT, from rD,LILBID with f1100): 0.692 ± 0.084; Kd [6]: 70 ± 16 µM; rD,LILBID @ 1100 µm ([6]; Tpx K102E with or without para-CFT): 0.942 ± 0.008; rD,solution ([6]; Tpx K102E with or without para-CFT, from rD,LILBID with f1100): 0.782 ± 0.029
O=c1[nH]c(CCl)nc2scc(-c3ccc(C(F)(F)F)cc3)c12 [CtFT]	410 ± 56 µM	360 ± 110 µM	0.983 ± 0.004	0.932 ± 0.017		
BSA (from UniProt P02769)						Kd [7]: 10 µM
O=c1[nH]c(CCl)nc2scc(-c3cccc(F)c3)c12 [meta-CFT]	3.7 ± 1.5 µM	6 ± 5 µM	0.809 ± 0.058	0.420 ± 0.124		
O=c1[nH]c(CCl)nc2scc(-c3ccccc3F)c12 [ortho-CFT]	32 ± 7 µM		0.897 ± 0.024	0.642 ± 0.072		
B1					26 µM	
B2					16 µM	
B3					360 µM	
B4					5 µM	
B5					6 µM	
B6						Kd [9]: > 500 µM
